The values below come from PMC8116058, “De novo macrocyclic peptides dissect energy coupling of a heterodimeric ABC transporter by multimode allosteric inhibition” (eLife, 2021).

This experiment addresses T1, TmrAB reconstituted in liposomes (Thermus thermophilus, UniProt Q72J04+Q72J05).
T1 sequence (Q72J05 1-600): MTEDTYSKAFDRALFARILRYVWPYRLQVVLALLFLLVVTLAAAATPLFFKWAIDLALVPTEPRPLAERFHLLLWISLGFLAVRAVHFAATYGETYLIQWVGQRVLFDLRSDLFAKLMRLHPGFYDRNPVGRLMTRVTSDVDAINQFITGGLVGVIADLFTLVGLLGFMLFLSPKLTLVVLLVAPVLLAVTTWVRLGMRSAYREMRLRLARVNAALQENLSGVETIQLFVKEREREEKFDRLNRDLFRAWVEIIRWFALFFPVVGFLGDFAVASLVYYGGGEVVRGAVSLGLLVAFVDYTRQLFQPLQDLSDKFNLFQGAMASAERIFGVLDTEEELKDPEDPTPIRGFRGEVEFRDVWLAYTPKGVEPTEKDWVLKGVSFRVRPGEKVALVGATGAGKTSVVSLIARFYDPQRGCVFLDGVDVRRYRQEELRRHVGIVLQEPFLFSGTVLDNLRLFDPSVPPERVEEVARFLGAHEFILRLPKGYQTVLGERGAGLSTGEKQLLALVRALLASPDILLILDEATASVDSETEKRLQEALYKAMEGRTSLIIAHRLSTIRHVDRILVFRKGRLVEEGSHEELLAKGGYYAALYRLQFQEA
T1 sequence (Q72J04 1-578): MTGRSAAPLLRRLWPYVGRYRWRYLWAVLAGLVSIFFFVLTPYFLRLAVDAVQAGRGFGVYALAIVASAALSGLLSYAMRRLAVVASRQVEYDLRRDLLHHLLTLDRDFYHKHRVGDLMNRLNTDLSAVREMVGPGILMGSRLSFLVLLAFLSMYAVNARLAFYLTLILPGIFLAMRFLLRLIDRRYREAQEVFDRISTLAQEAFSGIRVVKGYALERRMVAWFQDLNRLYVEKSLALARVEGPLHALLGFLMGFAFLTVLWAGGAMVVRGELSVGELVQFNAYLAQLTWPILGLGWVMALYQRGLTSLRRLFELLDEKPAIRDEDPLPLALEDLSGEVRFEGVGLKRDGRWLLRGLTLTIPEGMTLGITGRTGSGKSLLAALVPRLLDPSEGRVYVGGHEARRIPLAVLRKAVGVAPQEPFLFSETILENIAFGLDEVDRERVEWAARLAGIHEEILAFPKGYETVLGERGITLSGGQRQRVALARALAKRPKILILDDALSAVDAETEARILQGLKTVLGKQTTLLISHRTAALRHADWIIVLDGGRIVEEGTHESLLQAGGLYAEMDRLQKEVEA
The experiment can be described thus: Filter-based transport assay, CP^Fs tested as substrates. Format: biochemical. As to conditions: TmrAB 0.4 µM in liposomes, C4F 3 µM or CP^F 1 µM, 5 min 45°C. From the text: In order to investigate the functional impact of CPs, we examined the effect of the CPs on ATP hydrolysis and substrate transport of TmrAB (Figure 3A). We reconstituted TmrAB in liposomes and first assayed the ATPase activity. […] We next set out to investigate peptide transport by TmrAB using a filter-based transport assay. To investigate whether CPs are recognized as substrates by TmrAB, we added fluorescein-labeled CP^Fs and examined ATP-dependent translocation. In contrast to the linear substrate peptide C4F, none of the CP^Fs were transported by TmrAB (Figure 3C). Next, we examined ATP-dependent transport of C4F peptides in the presence and absence of the different CPs.
Figure 3. CP^Fs are potent inhibitors of ATP turnover and substrate transport. (A) Experimental scheme of ATP hydrolysis and peptide transport by TmrAB. (B) CP^Fs inhibit ATP hydrolysis. TmrAB in liposomes (100 nM) was incubated with ATP (2 mM, traced with [γ^32P]-ATP), and MgCl2 (5 mM) in the presence and absence of CP^Fs (1 µM) for 10 min at 45°C. Autohydrolysis was determined in the absence of TmrAB, and background turnover was conducted in the presence of EDTA (10 mM). Release of [γ^32P] was quantified by thin layer chromatography. (C) CP^Fs are not transported by TmrAB. TmrAB (0.4 µM) reconstituted in liposomes was incubated with C4F peptide (3 µM) or CP^Fs (1 µM) in the presence of ATP/ADP (3 mM) and MgCl2 (5 mM) for 5 min at 45°C. Since CP^Fs were dissolved in maximal 0.5% (v/v) of DMSO, C4F plus 0.5% DMSO served as control. Proteoliposomes were washed on filter plates, and transported peptides were quantified at λex/em = 485/520 nm. (D) Inhibition of substrate translocation. TmrAB in liposomes (0.4 µM) were incubated with C4F peptide (3 µM), ATP/ADP (3 mM), and MgCl2 (5 mM) in the presence and absence of CP^Fs (1 µM) for 15 min at 45°C. Transported peptides were quantified as described in (C). In (B–C), mean values ± SD (n = 3) are shown. Figure 3—source data 1. Source data for Figure 3.
TmrAB in liposomes (0.4 µM) were incubated with ATP/ADP (3 mM), MgCl2 (5 mM), C4F peptide (3 µM), and CP^Fs (1 µM) for 15 min at 45°C. […] Proteoliposomes were solubilized by adding SDS (1% [v/v]) in transport buffer for 10 min at 20°C. Transported peptides were quantified at λex/em = 485/520 nm using a microplate reader (CLARIOstar, BMG LABTECH).

Each structure is given as a SMILES string. Positions of bridges follow the written chain, without caps; N, C: chain ends. Non-standard residues stand in square brackets, D forms with d. Residues, ends and D or L forms follow the SMILES beside them. *: point of attachment. 5FAM = O=C1OC2(c3ccc(O)cc3Oc3cc(O)ccc32)c2ccc(C(=O)*)cc21; βAla = NCCC(=O)O

`CC(C)C[C@@H]1NC(=O)[C@H](Cc2ccccc2)NC(=O)CNC(=O)[C@H](CO)NC(=O)[C@H](Cc2ccccc2)NC(=O)[C@H](CC(=O)O)NC(=O)[C@@H]2CCCN2C(=O)[C@H]([C@@H](C)O)NC(=O)[C@@H](Cc2ccc(O)cc2)NC(=O)CSC[C@@H](C(=O)NCC(=O)N[C@@H](CO)C(=O)NCCC(=O)NCCC(=O)N[C@@H](CCCNC(=N)N)C(=O)N[C@@H](CCCCNC(=O)c2ccc3c(c2)C(=O)OC32c3ccc(O)cc3Oc3cc(O)ccc32)C(N)=O)NC(=O)[C@H](C)NC(=O)[C@H](CC(N)=O)NC(=O)[C@H](CCCNC(=N)N)NC(=O)[C@H](CC(C)C)NC(=O)[C@H](Cc2ccccc2)NC(=O)[C@H](C)NC1=O` [CP12] ({CH2CO}-[dY]TPDFSGFLAFLRNACGS[βAla][βAla]RK(5FAM)-NH2; thioether N-16) gave a Transported peptide (ADP 3 mM (background)) of 0.55 µmol·g/min and a Transported peptide (ATP 3 mM) of 0.44 µmol·g/min.
The matching figures for `CC[C@H](C)[C@@H]1NC(=O)[C@H]([C@@H](C)O)NC(=O)[C@H](CC(C)C)NC(=O)[C@H](Cc2c[nH]c3ccccc23)NC(=O)[C@H](Cc2ccccc2)NC(=O)[C@H](CC(N)=O)NC(=O)[C@H](CCC(=O)O)NC(=O)[C@H](CC(C)C)NC(=O)[C@H](CS)NC(=O)[C@H](Cc2c[nH]cn2)NC(=O)[C@H](CO)NC(=O)[C@@H](Cc2ccc(O)cc2)NC(=O)CSC[C@@H](C(=O)NCC(=O)N[C@@H](CO)C(=O)NCCC(=O)NCCC(=O)N[C@@H](CCCNC(=N)N)C(=O)N[C@@H](CCCCNC(=O)c2ccc3c(c2)C(=O)OC32c3ccc(O)cc3Oc3cc(O)ccc32)C(N)=O)NC(=O)[C@H](CC(C)C)NC1=O` [CP6] ({CH2CO}-[dY]SHCLENFWLTILCGS[βAla][βAla]RK(5FAM)-NH2; thioether N-14): 0.38 µmol·g/min and 0.33 µmol·g/min.
The matching figures for `CC(C)[C@@H]1NC(=O)[C@H](Cc2ccccc2)NC(=O)[C@@H]2CCCN2C(=O)[C@H](CC(N)=O)NC(=O)[C@H](Cc2c[nH]c3ccccc23)NC(=O)[C@H](C(C)C)NC(=O)[C@H](Cc2ccc(O)cc2)NC(=O)[C@H](Cc2ccccc2)NC(=O)[C@@H](Cc2ccc(O)cc2)NC(=O)CSC[C@@H](C(=O)NCC(=O)N[C@@H](CO)C(=O)NCCC(=O)NCCC(=O)N[C@@H](CCCNC(=N)N)C(=O)N[C@@H](CCCCNC(=O)c2ccc3c(c2)C(=O)OC32c3ccc(O)cc3Oc3cc(O)ccc32)C(N)=O)NC(=O)[C@H](CCCCN)NC(=O)[C@H](Cc2ccccc2)NC1=O` [CP14] ({CH2CO}-[dY]FYVWNPFVFKCGS[βAla][βAla]RK(5FAM)-NH2; thioether N-12; C-terminus assumed): 0.25 µmol·g/min and 0.26 µmol·g/min.
The matching figures for `CC[C@H](C)[C@@H]1NC(=O)[C@H](Cc2c[nH]c3ccccc23)NC(=O)[C@H](CC(N)=O)NC(=O)[C@H](C)NC(=O)[C@H](CO)NC(=O)[C@@H]2CCCN2C(=O)[C@H](CC(=O)O)NC(=O)[C@@H](Cc2ccc(O)cc2)NC(=O)CSC[C@@H](C(=O)NCC(=O)N[C@@H](CO)C(=O)NCCC(=O)NCCC(=O)N[C@@H](CCCNC(=N)N)C(=O)N[C@@H](CCCCNC(=O)c2ccc3c(c2)C(=O)OC32c3ccc(O)cc3Oc3cc(O)ccc32)C(N)=O)NC(=O)[C@H]([C@@H](C)O)NC(=O)[C@H](CC(C)C)NC(=O)[C@H](CC(C)C)NC(=O)[C@H](C(C)C)NC(=O)[C@H](CC(C)C)NC1=O` [CP13] ({CH2CO}-[dY]DPSANWILVLLTCGS[βAla][βAla]RK(5FAM)-NH2; thioether N-14; C-terminus assumed): 0.28 µmol·g/min and 0.33 µmol·g/min.
